Data from publication PMC3350394, “Kinetic analysis and test-retest variability of the radioligand [^11C](R)-PK11195 binding to TSPO in the human brain - a PET study in control subjects” (EJNMMI Research, 2012).
Where “and” joins values, the source holds several entries; their conditions need not be identical. Equal values may be shown once.

Target: TSPO (Homo sapiens, UniProt P30536)
Assay: PET, kinetic compartment analysis (1TCM, 2TCM) with metabolite-corrected arterial input function
Conditions: for BPND (k3/k4) Mean: mean of test and retest; for BPND (k3/k4) Retest / BPND (k3/k4) Test / VT (2TCM): mean(SD); for BPND (k3/k4) Retest / BPND (k3/k4) Test: 6 subjects; for ICC: BPND test-retest
Description: Each subject was placed recumbent with the head in the PET system. A head fixation system with an individual plaster helmet was used. A cannula was inserted into the left radial artery and another into the right antecubital vein. A sterile phosphate buffer (pH = 7.4) containing radioligand was injected as a bolus over 2 s into the cubital vein. The cannula was then immediately flushed with a 10-mL saline solution. In each individual, the measurement was repeated after approximately 6 weeks.
The PET system used was ECAT Exact HR 47 (Siemens/CTI, Knoxville, TN, USA), with an in-plane and an axial resolution of 3.6 and 4.0 mm, respectively, full width at half maximum (FWHM). The radioactivity in the brain was measured continuously for 60 min using a pre-programmed sequence of […] (20 s × 9, 30 s × 6, 180 s × 5, 300 s × 5). […] The images were reconstructed with a Hanning filter (FWHM = 2 mm) in a matrix of 128 × 128 × 47 voxels, yielding a voxel size of 2.03 × 2.03 × 3.125 mm. Attenuation correction was done using transmission scan data obtained for each subject.
[^11C](R)-PK11195 binding to TSPO was quantified using kinetic compartment analyses with the metabolite-corrected arterial plasma curve as input function. Two compartment models (one- and two-tissue) were used to fit the model to the TACs. The fractional volume of blood present in the tissue volume and bolus time were estimated for each individual, each occasion, by fitting the whole brain TAC with a two-tissue compartment model.
The one-tissue compartment model (1TCM) describes one compartment which is a composite of free, non-specifically and specifically bound radioligands. The two rate constants, K1 and k2, describe the influx and efflux rates across the blood-brain barrier, respectively.
The two-tissue compartment model (2TCM) has been described in detail in the literature. The two-tissue compartments are defined as the radioactivity concentration of a nondisplaceable radioligand in the brain (CND) and the radioactivity concentration of a radioligand specifically bound to receptors (CB). In this model, four rate constants (K1, k2, k3 and k4) explain the time curves for radioligand in the brain. In short, the four rate constants were determined by curve fitting with a weighted non-linear least squares fitting technique with constraint-restricting parameters between 0 and 0.9. Each initial value for K1, k2, k3 and k4 was 0.5, 0.1, 0.5 and 0.5, respectively. The local minimum of the sum of the squared residuals was determined by iteration.
Regional [^11C](R)-PK11195 binding was expressed using the concept of the total distribution volume (VT), which is defined by the following equation, using kinetic constants obtained from 2TCM [16, 20, 21].
Specific [^11C](R)-PK11195 binding was expressed as binding potential relative to nondisplaceable binding (BPND) as follows:
The fractional volume of blood present in the tissue volume was determined for each individual, each occasion. It was obtained by fitting whole brain TAC with a 2TCM with six parameters (K1, k2, k3, k4, fractional blood volume (VB) and time shift between plasma input function and PET TAC (tbolus)) and parameters VB and tbolus subsequently applied for each brain region.
The reproducibility of two successive PET measurements was analysed by means of descriptive statistics (mean, range, SD, coefficient of variance (CV), difference in measurement (error in percent) and intra-class correlation coefficient (ICC)). The ICC was calculated from the between-subject and within-subject variations, using the expression: […]

[1] = putamen (R), BPND test-retest difference in measurements
[2] = thalamus (L), BPND test-retest difference in measurements
[3] = thalamus (R), BPND test-retest difference in measurements
[4] = thalamus, BPND test-retest difference in measurements
[5] = thalamus, VT (2TCM) test-retest
[6] = white matter, 1TCM, retest (2), individual subjects 1-6
[7] = white matter, 1TCM, retest (2), mean(SD/CV) of 6 subjects
[8] = white matter, 1TCM, test (1), individual subjects 1-6
[9] = white matter, 1TCM, test (1), mean(SD/CV) of 6 subjects
[10] = white matter, 2TCM, retest (2), individual subjects 1-6
[11] = white matter, 2TCM, retest (2), mean(SD/CV) of 6 subjects
[12] = white matter, 2TCM, test (1), individual subjects 1-6
[13] = white matter, 2TCM, test (1), mean(SD/CV) of 6 subjects
[14] = white matter, BPND test-retest difference in measurements
[15] = white matter, VT (2TCM) test-retest
[16] = whole brain, BPND test-retest difference in measurements
[17] = whole brain, VT (2TCM) test-retest

Chain of TSPO (P30536 whole entry): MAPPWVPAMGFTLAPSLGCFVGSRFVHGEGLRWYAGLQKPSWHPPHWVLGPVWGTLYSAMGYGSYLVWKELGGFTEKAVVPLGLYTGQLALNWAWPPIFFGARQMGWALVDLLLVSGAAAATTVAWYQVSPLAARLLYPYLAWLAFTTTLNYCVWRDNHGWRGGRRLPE

SMILES: CC[C@@H](C)N([11CH3])C(=O)c1cc2ccccc2c(-c2ccccc2Cl)n1 [[^11C](R)-PK11195]
- BPND (k3/k4) Mean (putamen (R), 2TCM): 1.41
- BPND (k3/k4) Retest (putamen (R), 2TCM): 1.56(0.73)
- BPND (k3/k4) Test (putamen (R), 2TCM): 1.27(0.48)
- ICC (putamen (R)): -0.01
- Error % mean(SD) [1]: -32(72) %
- Error range (%) [1]: -145 to 34%
- BPND (k3/k4) Mean (putamen, 2TCM): 1.38
- BPND (k3/k4) Retest (putamen, 2TCM): 1.50(0.69)
- BPND (k3/k4) Test (putamen, 2TCM): 1.20(0.28)
- ICC (putamen): 0.09
- Error range (%) (putamen, BPND test-retest difference in measurements): -138 to 21%
- Error % mean(SD) (putamen, VT (2TCM) test-retest): 17(38) %
- Error range (%) (putamen, VT (2TCM) test-retest): -32 to 78%
- VT (2TCM) (putamen, retest): 0.93(0.19)
- VT (2TCM) (putamen, test): 0.83(0.21)
- BPND (k3/k4) Mean (thalamus (L), 2TCM): 1.26
- BPND (k3/k4) Retest (thalamus (L), 2TCM): 1.42(0.59)
- BPND (k3/k4) Test (thalamus (L), 2TCM): 1.11(0.25)
- ICC (thalamus (L)): 0.17
- Error % mean(SD) [2]: -32(64) %
- Error range (%) [2]: -136 to 39%
- BPND (k3/k4) Mean (thalamus (R), 2TCM): 1.60
- BPND (k3/k4) Retest (thalamus (R), 2TCM): 1.86(0.56)
- BPND (k3/k4) Test (thalamus (R), 2TCM): 1.34(0.43)
- ICC (thalamus (R)): 0.16
- Error % mean(SD) [3]: -46(50) %
- Error range (%) [3]: -136 to 17%
- BPND (k3/k4) Mean (thalamus, 2TCM): 1.36
- BPND (k3/k4) Retest (thalamus, 2TCM): 1.53(0.45)
- BPND (k3/k4) Test (thalamus, 2TCM): 1.19(0.28)
- ICC (thalamus): 0.57
- Error % mean(SD) [4]: -29% and -29(33) %
- Error range (%) [4]: -82 to 9%
- Error % mean(SD) [5]: -6(29) %
- Error range (%) [5]: -47 to 40%
- VT (2TCM) (thalamus, retest): 0.80 (0.23)
- VT (2TCM) (thalamus, test): 0.90(0.27)
- K1 [6]: 0.075 mL/cc/min and 0.027 mL/cc/min and 0.032 mL/cc/min and 0.033 mL/cc/min and 0.042 mL/cc/min and 0.046 mL/cc/min
- k2 [6]: 0.085 min⁻¹ and 0.066 min⁻¹ and 0.078 min⁻¹ and 0.064 min⁻¹ and 0.071 min⁻¹ and 0.089 min⁻¹
- K1 [7]: 0.043(0.017/39) mL/cc/min
- k2 [7]: 0.076(0.010/13) min^-1
- K1 [8]: 0.049 mL/cc/min and 0.027 mL/cc/min and 0.048 mL/cc/min and 0.030 mL/cc/min and 0.055 mL/cc/min and 0.044 mL/cc/min
- k2 [8]: 0.066 min⁻¹ and 0.081 min⁻¹ and 0.072 min⁻¹ and 0.086 min⁻¹ and 0.071 min⁻¹
- K1 [9]: 0.042(0.011/26) mL/cc/min
- k2 [9]: 0.074(0.008/11) min^-1
- BPND (k3/k4) Mean (white matter, 2TCM): 1.84
- BPND (k3/k4) Retest (white matter, 2TCM): 1.78(0.42)
- BPND (k3/k4) Test (white matter, 2TCM): 1.90(0.42)
- K1 [10]: 0.060 mL/cc/min and 0.097 mL/cc/min and 0.035 mL/cc/min and 0.045 mL/cc/min and 0.039 mL/cc/min and 0.051 mL/cc/min
- k2 [10]: 0.206 min⁻¹ and 0.209 min⁻¹ and 0.164 min⁻¹ and 0.223 min⁻¹ and 0.126 min⁻¹ and 0.144 min⁻¹
- k3 [10]: 0.042 min⁻¹ and 0.061 min⁻¹ and 0.041 min⁻¹ and 0.046 min⁻¹ and 0.028 min⁻¹ and 0.033 min⁻¹
- k4 [10]: 0.025 min⁻¹ and 0.045 min⁻¹ and 0.020 min⁻¹ and 0.019 min⁻¹ and 0.018 min⁻¹ and 0.022 min⁻¹
- K1 [11]: 0.055(0.023/42) mL/cc/min
- k2 [11]: 0.179(0.040/22) min^-1
- k3 [11]: 0.042(0.011/26) min^-1
- k4 [11]: 0.025(0.010/40) min^-1
- K1 [12]: 0.061 mL/cc/min and 0.032 mL/cc/min and 0.035 mL/cc/min and 0.067 mL/cc/min and 0.056 mL/cc/min
- k2 [12]: 0.154 min⁻¹ and 0.124 min⁻¹ and 0.184 min⁻¹ and 0.138 min⁻¹ and 0.165 min⁻¹ and 0.176 min⁻¹
- k3 [12]: 0.043 min⁻¹ and 0.024 min⁻¹ and 0.034 min⁻¹ and 0.037 min⁻¹
- k4 [12]: 0.026 min⁻¹ and 0.019 min⁻¹ and 0.014 min⁻¹ and 0.012 min⁻¹ and 0.030 min⁻¹
- K1 [13]: 0.052(0.015/29) mL/cc/min
- k2 [13]: 0.157(0.02/13) min^-1
- k3 [13]: 0.034(0.009/26) min^-1
- k4 [13]: 0.020(0.007/35) min^-1
- ICC (white matter): 0.73
- Error % mean(SD) [14]: -4% and -8% and -8(18) %
- Error range (%) [14]: -25 to 21%
- Error % mean(SD) [15]: -9(25) %
- Error range (%) [15]: -42 to 28%
- VT (2TCM) (white matter, retest): 0.88 (0.19)
- VT (2TCM) (white matter, test): 0.99(0.17)
- BPND (k3/k4) Mean (whole brain, 2TCM): 1.67
- BPND (k3/k4) Retest (whole brain, 2TCM): 1.68(0.35)
- BPND (k3/k4) Test (whole brain, 2TCM): 1.65(0.33)
- ICC (whole brain): 0.57
- Error % mean(SD) [16]: 4% and -4(19) %
- Error range (%) [16]: -25 to 22%
- Error % mean(SD) [17]: -7(20) %
- Error range (%) [17]: -38 to 21%
- VT (2TCM) (whole brain, retest): 0.75 (0.16)
- VT (2TCM) (whole brain, test): 0.82(0.18)
